# Columns and labels:
# [1] = system: RAW264.7 macrophages; assay: LPS- and lipid aldehyde-induced signaling in RAW264.7 macrophages; assay type: cell-based
# Experimental: At the indicated times, cells were harvested for measurement of HNE (FIG. 5A), protein-HNE adducts (FIG. 5B), NF-kB (FIG. 5C), and TNF-a and IL-6 (FIG. 5D) as described in the methods. Cells were growth arrested as described above or transfected with control or AR siRNA oligonucleotides, incubated with GS-HNE-ester, or GS-DHN-ester (1 mM), and harvested for determination of NF-kB (FIG. 5E), membrane-bound total PKC (FIG. 5F).
# To determine if GS-DHN serves as a cellular sensor of ROS-induced insults, its effects on phosphorylation events upstream of IKK/NF-κB activation in RAW264.7 macrophages was examined.
# [2] = system: A549 xenografts; assay: A549 xenografts in nude mice; assay type: in vivo, mouse
# Experimental: The levels of ROS in sections of A549 xenografts was determined using dihydroethidium (Het; Molecular Probes, Eugene, Oreg.). The Het dye gives red fluorescence when oxidized to EtBr in the presence of ROS such as O2. Serial sections ([…]) of para-formaldehyde fixed xenografts were deparafinized and rehydrated and incubated with Het dye (5 μM in PBS) for 30 min at 37° C. followed by acquisition of images using a fluorescence microscope 200× magnification.
# Nine mice (20 weeks old) were divided into three groups of three animals and were treated with PBS, scrambled AR siRNA, and AR-siRNA, respectively. All nine animals were injected with 2×10^6 A549 human lung carcinoma cell suspensions in 100 μl PBS s.c. Animals were examined daily for signs of tumor growth. Treatment was given two times (day 1 and day 14) when the tumor surface area approximately 45 mm^2 (day 25). Treatment consisted of 200 μg AR-siRNA in 100 μl PBS. Control groups were treated with 200 μg/100 μl scrambled siRNA or diluent (PBS) alone. For the determination of effect of AR inhibitor, animals were fed with zopolrestat (40 mg/kg body weight) in the diet. Tumors were measured in two dimensions using calipers.
# Serial sections ([…]) of para-formaldehyde fixed xenografts were deparafenized and rehydrated and incubated with peptide specific AR antibodies and developed using DakoCytomation LSAB+System-HRP kit. The intensity of staining was observed under light microscope with 200× magnification.
# The results obtained from in vitro studies were confirmed by in vivo nude mice model bearing human lung carcinoma A549 cells. A549 (2×10^6) cells were implanted s.c. and allowed to grow in nu/nu nude mice to ˜45 mm^2 over a period of 25 days. Animals were grouped into control and experimental groups. Control group were fed with regular diet and experimental group was fed with AR inhibitor, Zopolrestat (after 10 days dose increased from 20 mg to 40 mg/kg/body weight) for until end of the experiment. Tumor growth was measured every two days using calipers. The photographs of animals were taken at days 1, 14, and 37 (FIGS. 20A-20B).
# [3] = system: SW480 xenografts; parameters: tumor progression: dose or concentration left out as unconfirmed
# Experimental: Nine 20-weeks-old athymic nu/nu nude mice were divided into three groups of 3 animals (Group 1: treated with PBS; Group 2: treated with scrambled siRNA and Group 3: treated with aldose-reductase siRNA). An aliquot of 2×10^6 SW480 human colon adenocarcinoma cell suspensions in 100 μl PBS was injected subcutaneously into one flank of each nu/nu nude mouse. Animals were examined daily for signs of tumor growth. Treatment was administered when the tumor surface area exceeded 45 mm^2, i.e., day 25. Treatment consisted of 200 mg aldose-reductase siRNA in 100 ml PBS administered intraperitoneally. Control groups were treated with 200 mg/100 ml scrambled siRNA, or diluent (PBS) alone. Mice were treated on days 1 and 14. Tumors were measured in two dimensions using calipers over 40 days.
# [4] = system: HT29 cells; assay: HT29 cell proliferation, MTT assay; assay type: cell-based; conditions: inhibitor alone
# Experimental: HT29 cells were grown to confluence in McCoy's medium and harvested and plated 2,500 per well in a 96-well plate. Subconfluent cells were growth arrested in 0.1% FBS with or without AR inhibitor sorbinil or zopolrestat (20 μM). After 24 hours, EGF (5 ng/ml) or BFGF (10 ng/ml) was added to the medium and the cells were incubated for another 24 hours. Cells incubated with the AR inhibitors alone served as control. Cell viability was determined by an MTT assay.
# [5] = system: HT29 cells; assay: PGE2 assay in HT29 cells; assay type: cell-based; conditions: inhibitor alone
# Experimental: (§1) Caco-2 cells were plated in 6 well plates at a density of 2×10^5 cells/well. After 24 hours, the medium was replaced with fresh medium containing 0.1% serum with or without, sorbinil (20 μM) followed by treatment with either 10 ng/ml BFGF or PDGF, for another 24 h. HT29 cells were plated in 6 well plate at a density of 2×10^5 cells/well. After 24 hours, medium was replaced with serum-free medium with or without, sorbinil or zopolrestat (20 μM) followed by treatment with either EGF (5 ng/ml) or BFGF (10 ng/ml) for another 24 h. The medium from each cell lines was collected from each well and analyzed for PGE2 by using an Enzyme Immuno Assay kit according to the manufacturer's instructions (Cayman Chemical Co., Inc.).
# Briefly, 50 μl of diluted standard/sample were pipetted into a pre-coated goat polyclonal anti-mouse IgG 96-well plate. Aliquots (50 μl) of a PGE2 monoclonal antibody and PGE2 acetylcholine esterase (AchE) conjugate, (PGE2 tracer) were added to each well and allowed to incubate at 4° C. for 24 h. After incubation, the wells were washed five times with wash buffer containing 0.05% Tween-20, followed by the addition of 200 μl of Ellman's reagent containing acetylthiocholine and 5,5′-dithio-bis-(2-nitrobenzoic acid). Samples were read after 60 min at 412 nm with an ELISA reader. […]
# [6] = biological target: aldose reductase (Homo sapiens, UniProt P15121); conditions: cited from earlier work
# [7] = system: Caco-2 cells; assay: PGE2 assay in Caco-2 cells; assay type: cell-based, human; conditions: preincubation with inhibitor 30 min, BFGF or PDGF 24 h
# Experimental: as §1
# Briefly, 50 μl of diluted standard/sample were pipetted into a pre-coated goat polyclonal anti-mouse IgG 96-well plate. Aliquots (50 μl) of a PGE2 monoclonal antibody and PGE2 acetylcholine esterase (AchE) conjugate, (PGE2 tracer) were added to each well and allowed to incubate at 4° C. for 24 h. After incubation, the wells were washed five times with wash buffer containing 0.05% Tween-20, followed by the addition of 200 μl of Ellman's reagent containing acetylthiocholine and 5,5′-dithio-bis-(2-nitrobenzoic acid). Samples were read after 60 min at 412 nm with an ELISA reader. In this procedure the intensity of yellow color, is proportional to the amount of PGE2 tracer bound to the well and is inversely proportional to the amount of free PGE2 present in the well during incubation.
# [8] = system: rat VSMC cells; assay: High glucose-induced TNF-a production in VSMC; assay type: cell-based; conditions: for high glucose-induced TNF-a secretion: preincubated 1 h, then 19.5 mM glucose, apocyanin 25 mM, calphostin C 0.2 mM, N-acetyl cysteine 10 mM, sorbinil or tolrestat 10 mM each, or AR antisense ablated
# Experimental: Growth-arrested VSMC in 5.5 mM glucose (NG) were preincubated for 1 h without or with apocyanin (25 mM), D609 (100 mM), calphostin C (0.2 mM), N-acetyl cysteine (10 mM) and NF-kB inhibitor (18 mM) (FIG. 4A) and without or with sorbinil or tolrestat (10 mM each) (FIG. 4B) followed by the addition of glucose (19.5 mM) and incubation for the indicated times. AR antisense ablated VSMC were incubated with HG for the indicated times (FIG. 4C).
# Growth-arrested VSMC in 5.5 mM glucose (NG) were preincubated for 1 h without or with apocyanin (25 mM), D609 (100 mM), calphostin C (0.2 mM), N-acetyl cysteine (10 mM) and NF-kB inhibitor (18 mM) respectively, followed by the addition of 19.5 mM glucose, after which the cells were incubated for 12 and 24 hrs.
# [9] = system: A549 cells; assay: A549 cell proliferation, MTT assay; assay type: cell-based; conditions: Homo sapiens, 24 hrs
# Experimental: A549 cells were grown to confluence in Ham's F12K medium containing 10% FBS and harvested, and plated at 5000 cells per well in a 96-well plate. After 24 hrs A549 cells were treated with or without AR inhibitor sorbinil or tolrestat with various concentrations for another 24 hrs. Cells incubated without AR inhibitors served as control. Cell viability was determined by and MTT assay.
# [10] = system: A549 cells; assay: Western blot of Cox-2 and iNOS in A549 cells; assay type: cell-based, human; conditions: concentration dependent
# Experimental: (§2) To examine expression of any of Cox-1, Cox-2, phospho-PKC-2, GAPDH, E2F1, Cyclin D1, Cyclin E, and iNOS proteins, Western blot analyses were carried by known methods (15). Equal amounts of protein from cell extracts were subjected to 12% SDS-PAGE followed by transfer of proteins to nitrocellulose filters, probing with the indicated antibodies, and the antigen-antibody complex was detected by enhanced chemiluminescence (Pierce, Piscataway, N.J., USA).
# [11] = system: A549 cells; assay: Western blot of cell cycle regulatory proteins in A549 cells; assay type: cell-based, human; conditions: various concentrations
# Experimental: as §2
# [12] = system: Caco-2 cells; assay: Reactive oxygen species in Caco-2 cells (DCFH-DA); assay type: cell-based, human; conditions: 20 μM, FGF or PDGF 10 ng/ml 60 min
# Experimental: Caco-2 cells were plated in a 24-well plate at a density of 1.5×10^4 cells/well in DMEM and then serum-starved at 60-70% confluence in the absence and presence of 20 μM sorbinil or tolrestat for overnight in phenol red-free DMEM supplemented with 0.1% FBS. Cells were then pre-incubated for 30 min with the ROS-sensitive fluorophore 2′,7′-dichlorofluorescein diacetate (DCFH-DA), which is taken up and oxidized to the fluorescent dichlorofluorescein by intracellular ROS. After incubation with DCFH-DA, the cells were exposed to FGF or PDGF 10 ng/ml for 60 min and fluorescence was measured with a CytoFluorII fluorescence plate reader (PerSeptive Biosystems, Inc., Framingham, Mass.) at excitation of 485 nm and emission of 528 nm.
# [13] = compared to control and scrambled siRNA
molecule,measurement,setting,value
AR-siRNA: AR-siRNA (5′-AATCGGTGTCTCCAACTTCAA-3′; SEQ ID NO: 1) synthesized by Dharmacon Research (chemistry not given here),ability of GS-DHN to activate NF-κB,[1],had no effect
same,effects of HNE/GS-HNE on IKK-a/b phosphorylation and NF-kB translocation,[1],significantly blunted
same,AR protein expression in xenograft sections,[2]; [13],significantly prevention
same,ROS production in xenograft sections (HEt red fluorescence),[2]; [13],significantly reduced
same,progression of tumor growth,[2]; i.p. 200 μg AR-siRNA in 100 μl PBS on days 1 and 14,inhibited completely
same,tumor progression,"[3]; intraperitoneally, days 1 and 14",completely arrested
same,normal weight gain of animals,"[3]; mouse, in vivo",without interfering
"O=C(O)Cc1nn(Cc2nc3cc(C(F)(F)F)ccc3s2)c(=O)c2ccccc12 [zopolrestat, 3,4-dihydro-4-oxo-3-[[5-(trifluoromethyl)-2-benzothiazolyl]methyl]-1-phthalazineacetic acid]",HT29 cells proliferation,[4],did not cause any effect
same,constitutive levels of PGE2,[5],did not inhibit
same,normal weight gain of animals,[2]; zopolrestat in the diet,None of the treatments interfered
same,tumor progression,"[2]; zopolrestat in the diet, 20 mg to 40 mg/kg/body weight",completely arrested
"N[C@@H](CCC(=O)N[C@@H](CSC(CC(=O)O)C(=O)O)C(=O)NCC(=O)O)C(=O)O (stereo partly drawn) [DCEG, S-(1,2-dicarboxyethyl) glutathione, γ-glutamyl-S-(1,2-dicarboxyethyl)cysteinylglycine]",inhibition of AR-catalyzed reaction of glutathionyl-propanal,[6],competitive inhibitor
same,inhibition of aldehyde reduction by aldose reductase,[6],competitive inhibitor
"glutathionyl-1,4-dihydroxynonene [GS-DHN]",increase of protein kinase C (PKC) activity after GS-DHN challenge,[1]; within 60 min,~2.5 fold
CC(=O)N[C@@H](CS)C(=O)O [N-acetylcysteine],growth factor-induced production of PGE2,[7],attenuated
COc1ccc2c(C(=S)N(C)CC(=O)O)cccc2c1C(F)(F)F [tolrestat],basal levels of TNF-a,"[8]; media containing 5.5 mM glucose, mannitol, or 3-OMG",did not affect
same,high glucose-induced TNF-a secretion,[8],prevents
same,inhibition at 100 µM,[9],> 75%
same,Cox-2 and iNOS expression,[10],inhibit
same,"E2F-1, Cyclin E and Cyclin D1 expression",[11],significant inhibition
same,growth factor-induced increase in ROS,[12],inhibited
calphostin C,high glucose-induced TNF-a secretion,[8],markedly decreased
same,growth factor-induced production of PGE2,[7],attenuated

# Source: US8551997B2, “Structural-based inhibitors of the glutathione binding site in aldose reductase, methods of screening therefor and methods of use” (The Board of Regents of the University of Texas System, priority 2004, dated 2013)
